Data taken from the NIST ThermoML archive (doi:10.1016/j.fluid.2010.03.001).
± gives the expanded uncertainty stated by the source.

Test: xn = mol fraction of the nth substance listed
Settings: 101 kPa, Liquid; for viscosity: Concentric cylinders viscometry; for mass density: Vibrating tube method

C=C(C)[C@H]1CC=C(C)CC1 [(R)-1-methyl-4-(1-methylethenyl)cyclohexene] + CCCCCO
Settings | mass density [kg/m3] | viscosity [mPa·s]
293.15 K, x2 = 0 | 841.5 ± 1 | 0.902 ± 0.014
293.15 K, x2 = 0.092 | 839.4 ± 0.9 | 0.935 ± 0.014
293.15 K, x2 = 0.1644 | 837.8 ± 0.8 | 0.983 ± 0.015
293.15 K, x2 = 0.2748 | 835.4 ± 0.7 | 1.079 ± 0.015
293.15 K, x2 = 0.3592 | 833.5 ± 0.7 | 1.182 ± 0.016
293.15 K, x2 = 0.4565 | 831.2 ± 0.6 | 1.34 ± 0.017
293.15 K, x2 = 0.5542 | 828.8 ± 0.5 | 1.564 ± 0.019
293.15 K, x2 = 0.6068 | 827.4 ± 0.5 | 1.717 ± 0.021
293.15 K, x2 = 0.647 | 826.4 ± 0.5 | 1.851 ± 0.022
293.15 K, x2 = 0.7365 | 823.8 ± 0.4 | 2.213 ± 0.025
293.15 K, x2 = 0.8234 | 821.1 ± 0.4 | 2.66 ± 0.03
293.15 K, x2 = 0.9105 | 818.1 ± 0.4 | 3.26 ± 0.03
303.15 K, x2 = 0 | 833.6 ± 1 | 0.793 ± 0.013
303.15 K, x2 = 0.092 | 831.4 ± 0.9 | 0.814 ± 0.013
303.15 K, x2 = 0.1644 | 829.8 ± 0.8 | 0.85 ± 0.013
303.15 K, x2 = 0.2748 | 827.4 ± 0.7 | 0.923 ± 0.013
303.15 K, x2 = 0.3592 | 825.4 ± 0.7 | 1 ± 0.014
303.15 K, x2 = 0.4565 | 823.2 ± 0.6 | 1.115 ± 0.015
303.15 K, x2 = 0.5542 | 820.8 ± 0.5 | 1.275 ± 0.016
303.15 K, x2 = 0.6068 | 819.5 ± 0.5 | 1.384 ± 0.017
303.15 K, x2 = 0.647 | 818.4 ± 0.5 | 1.477 ± 0.018
303.15 K, x2 = 0.7365 | 816 ± 0.4 | 1.73 ± 0.02
303.15 K, x2 = 0.8234 | 813.4 ± 0.4 | 2.055 ± 0.023
303.15 K, x2 = 0.9105 | 810.5 ± 0.4 | 2.473 ± 0.026
313.15 K, x2 = 0 | 825.8 ± 1 | 0.702 ± 0.011
313.15 K, x2 = 0.092 | 823.4 ± 0.9 | 0.716 ± 0.011
313.15 K, x2 = 0.1644 | 821.8 ± 0.8 | 0.743 ± 0.011
313.15 K, x2 = 0.2748 | 819.4 ± 0.7 | 0.799 ± 0.012
313.15 K, x2 = 0.3592 | 817.4 ± 0.7 | 0.854 ± 0.012
313.15 K, x2 = 0.4565 | 815.2 ± 0.6 | 0.942 ± 0.013
313.15 K, x2 = 0.5542 | 812.9 ± 0.5 | 1.057 ± 0.014
313.15 K, x2 = 0.6068 | 811.6 ± 0.5 | 1.137 ± 0.014
313.15 K, x2 = 0.647 | 810.6 ± 0.5 | 1.201 ± 0.015
313.15 K, x2 = 0.7365 | 808.2 ± 0.4 | 1.386 ± 0.016
313.15 K, x2 = 0.8234 | 805.8 ± 0.4 | 1.617 ± 0.018
313.15 K, x2 = 0.9105 | 803 ± 0.4 | 1.915 ± 0.021
323.15 K, x2 = 0 | 817.9 ± 1 | 0.628 ± 0.01
323.15 K, x2 = 0.092 | 815.4 ± 0.9 | 0.635 ± 0.01
323.15 K, x2 = 0.1644 | 813.7 ± 0.8 | 0.655 ± 0.01
323.15 K, x2 = 0.2748 | 811.3 ± 0.7 | 0.699 ± 0.011
323.15 K, x2 = 0.3592 | 809.3 ± 0.7 | 0.737 ± 0.011
323.15 K, x2 = 0.4565 | 807.1 ± 0.6 | 0.805 ± 0.011
323.15 K, x2 = 0.5542 | 804.8 ± 0.5 | 0.891 ± 0.012
323.15 K, x2 = 0.6068 | 803.5 ± 0.5 | 0.949 ± 0.012
323.15 K, x2 = 0.647 | 802.5 ± 0.5 | 0.995 ± 0.013
323.15 K, x2 = 0.7365 | 800.2 ± 0.4 | 1.129 ± 0.014
323.15 K, x2 = 0.8234 | 797.9 ± 0.4 | 1.298 ± 0.015
323.15 K, x2 = 0.9105 | 795.3 ± 0.4 | 1.51 ± 0.017
333.15 K, x2 = 0 | 809.9 ± 0.9 | 0.566 ± 0.01
333.15 K, x2 = 0.092 | 807.3 ± 0.9 | 0.568 ± 0.009
333.15 K, x2 = 0.1644 | 805.5 ± 0.8 | 0.582 ± 0.009
333.15 K, x2 = 0.2748 | 803 ± 0.7 | 0.616 ± 0.01
333.15 K, x2 = 0.3592 | 801 ± 0.6 | 0.644 ± 0.01
333.15 K, x2 = 0.4565 | 798.8 ± 0.6 | 0.696 ± 0.01
333.15 K, x2 = 0.5542 | 796.5 ± 0.5 | 0.761 ± 0.01
333.15 K, x2 = 0.6068 | 795.2 ± 0.5 | 0.803 ± 0.011
333.15 K, x2 = 0.647 | 794.2 ± 0.5 | 0.837 ± 0.011
333.15 K, x2 = 0.7365 | 792.2 ± 0.4 | 0.937 ± 0.012
333.15 K, x2 = 0.8234 | 789.8 ± 0.4 | 1.06 ± 0.012
333.15 K, x2 = 0.9105 | 787.3 ± 0.4 | 1.219 ± 0.014
343.15 K, x2 = 0 | 801.9 ± 0.9 | 0.5 ± 0.009
343.15 K, x2 = 0.092 | 799.2 ± 0.8 | 0.511 ± 0.009
343.15 K, x2 = 0.1644 | 797.2 ± 0.8 | 0.52 ± 0.009
343.15 K, x2 = 0.2748 | 794.6 ± 0.7 | 0.546 ± 0.009
343.15 K, x2 = 0.3592 | 792.6 ± 0.6 | 0.567 ± 0.009
343.15 K, x2 = 0.4565 | 790.4 ± 0.6 | 0.608 ± 0.009
343.15 K, x2 = 0.5542 | 788.2 ± 0.5 | 0.657 ± 0.009
343.15 K, x2 = 0.6068 | 787 ± 0.5 | 0.688 ± 0.009
343.15 K, x2 = 0.647 | 786 ± 0.5 | 0.713 ± 0.01
343.15 K, x2 = 0.7365 | 783.7 ± 0.4 | 0.786 ± 0.01
343.15 K, x2 = 0.8234 | 781.5 ± 0.4 | 0.878 ± 0.011
343.15 K, x2 = 0.9105 | 779.1 ± 0.4 | 0.996 ± 0.012
353.15 K, x2 = 0 | 793.6 ± 0.9 | 0.452 ± 0.008
353.15 K, x2 = 0.092 | 790.8 ± 0.8 | 0.462 ± 0.008
353.15 K, x2 = 0.1644 | 788.9 ± 0.8 | 0.468 ± 0.008
353.15 K, x2 = 0.2748 | 786.2 ± 0.7 | 0.487 ± 0.008
353.15 K, x2 = 0.3592 | 784.2 ± 0.6 | 0.502 ± 0.008
353.15 K, x2 = 0.4565 | 781.9 ± 0.6 | 0.534 ± 0.008
353.15 K, x2 = 0.5542 | 779.5 ± 0.5 | 0.571 ± 0.008
353.15 K, x2 = 0.6068 | 778.4 ± 0.5 | 0.594 ± 0.008
353.15 K, x2 = 0.647 | 777.4 ± 0.5 | 0.615 ± 0.009
353.15 K, x2 = 0.7365 | 775.2 ± 0.4 | 0.669 ± 0.009
353.15 K, x2 = 0.8234 | 773.1 ± 0.4 | 0.737 ± 0.009
353.15 K, x2 = 0.9105 | 770.6 ± 0.4 | 0.827 ± 0.01
363.15 K, x2 = 0 | 785.4 ± 0.9 | 0.413 ± 0.008
363.15 K, x2 = 0.092 | 782.5 ± 0.8 | 0.421 ± 0.008
363.15 K, x2 = 0.1644 | 780.4 ± 0.8 | 0.424 ± 0.007
363.15 K, x2 = 0.2748 | 777.7 ± 0.7 | 0.438 ± 0.007
363.15 K, x2 = 0.3592 | 775.6 ± 0.6 | 0.448 ± 0.007
363.15 K, x2 = 0.4565 | 773.2 ± 0.6 | 0.473 ± 0.007
363.15 K, x2 = 0.5542 | 770.9 ± 0.5 | 0.502 ± 0.008
363.15 K, x2 = 0.6068 | 769.6 ± 0.5 | 0.519 ± 0.008
363.15 K, x2 = 0.647 | 768.6 ± 0.5 | 0.535 ± 0.008
363.15 K, x2 = 0.7365 | 766.5 ± 0.4 | 0.576 ± 0.008
363.15 K, x2 = 0.8234 | 764.4 ± 0.4 | 0.627 ± 0.008
363.15 K, x2 = 0.9105 | 762 ± 0.4 | 0.691 ± 0.009
373.15 K, x2 = 0 | 777.1 ± 0.9 | 0.382 ± 0.007
373.15 K, x2 = 0.092 | 774.3 ± 0.8 | 0.385 ± 0.007
373.15 K, x2 = 0.1644 | 771.9 ± 0.8 | 0.386 ± 0.007
373.15 K, x2 = 0.2748 | 769 ± 0.7 | 0.395 ± 0.007
373.15 K, x2 = 0.3592 | 766.9 ± 0.6 | 0.402 ± 0.007
373.15 K, x2 = 0.4565 | 764.4 ± 0.6 | 0.421 ± 0.007
373.15 K, x2 = 0.5542 | 762 ± 0.5 | 0.443 ± 0.007
373.15 K, x2 = 0.6068 | 760.7 ± 0.5 | 0.456 ± 0.007
373.15 K, x2 = 0.647 | 759.7 ± 0.5 | 0.469 ± 0.007
373.15 K, x2 = 0.7365 | 757.7 ± 0.4 | 0.499 ± 0.007
373.15 K, x2 = 0.8234 | 755.7 ± 0.4 | 0.538 ± 0.007
373.15 K, x2 = 0.9105 | 753.1 ± 0.4 | 0.584 ± 0.008
